According to patent US20140315883A1, “6H-IMIDAZO[1,5-a]PYRROLO[2,3-e]PYRAZINE COMPOUNDS” (ABBVIE INC., priority 2013, published 2014):

Test system: not given
Experiment: not given
Conditions: patients in clinical trials; cited from earlier work

Compound | risk for hypertension
CCN(CC)CCNC(=O)c1c(C)[nH]c(/C=C2\C(=O)Nc3ccc(F)cc32)c1C [sunitibnib, sunitinib] | increased risk for hypertension

Biological target: T1, Syk (Homo sapiens, UniProt P43405)
T1 construct: Purified Syk catalytic domain (aa 356-635 with a C-terminal His-tag purified in-house); His-tag (C); made in house
Experiment: In vitro Syk kinase activity measured by trFRET
Assay type: biochemical
Conditions: Syk catalytic domain, 0.001 mM ATP
Protocol: In Vitro Syk Kinase Activity Measured by Time-Resolved Fluorescence Resonance Energy Transfer (trFRET)
After about 60 min incubation at rt, the reaction was quenched by addition of EDTA (final concentration: 100 mM) and developed by addition of revelation reagents (final approximate concentrations: 30 mM HEPES pH 7.0, 0.06% BSA, 0.006% Tween-20, 0.24 M KF, 80 ng/mL PT66K (europium labeled anti-phosphotyrosine antibody cat #61T66KLB Cisbio, Bedford, Mass.) and 0.6 μg/mL SAXL (Phycolink streptavidin-allophycocyanin acceptor, cat #PJ25S, Prozyme, San Leandro, Calif.). The developed reaction was incubated in the dark either at about 4° C. for about 14 h or for about 60 min at rt, then read via a time-resolved fluorescence detector (Rubystar, BMG) using a 337 nm laser for excitation and monitoring emission wavelengths at 665 nm. Within the linear range of the assay, the observed signal at 665 nm was directly related to phosphorylated product and can be used to calculate the IC50 values.

Compound | IC50 [nM]
CCOc1ccc(-c2nc([C@H]3C[C@@H](O)CN3C(C)=O)n3c2cnc2[nH]cc(Cl)c23)cc1 [F.1.11, 1-((2R,4R)-2-(8-chloro-3-(4-ethoxyphenyl)-6H-imidazo[1,5-a]pyrrolo[2,3-e]pyrazin-1-yl)-4-hydroxypyrrolidin-1-yl)ethanone] | 10 to 30
CC(=O)N1C[C@H](O)C[C@@H]1c1nc(-c2ccc(OCCN3CCOCC3)cc2)c2cnc3[nH]ccc3n12 [F.1.12, 1-((2R,4R)-4-hydroxy-2-(3-(4-(2-morpholinoethoxy)phenyl)-6H-imidazo[1,5-a]pyrrolo[2,3-e]pyrazin-1-yl)pyrrolidin-1-yl)ethanone] | 10 to 30
COc1ccc(-c2nc([C@H]3C[C@@H](O)CN3C(C)=O)n3c2cnc2[nH]cc(C)c23)cc1 [F.1.14] | 30 to 100
CC(=O)N1C[C@H](O)C[C@@H]1c1nc(-c2ccc3c(c2)CCCO3)c2cnc3[nH]ccc3n12 [F.1.19, 1-((2R,4R)-2-(3-(chroman-6-yl)-6H-imidazo[1,5-a]pyrrolo[2,3-e]pyrazin-1-yl)-4-hydroxypyrrolidin-1-yl)ethanone] | 10 to 30
COCCOc1ccc(-c2nc([C@H]3C[C@@H](O)CN3C(C)=O)n3c2cnc2[nH]ccc23)cc1 [F.1.21, 1-((2R,4R)-4-hydroxy-2-(3-(4-(2-methoxyethoxy)phenyl)-6H-imidazo[1,5-a]pyrrolo[2,3-e]pyrazin-1-yl)pyrrolidin-1-yl)ethanone] | 10 to 30
COc1ccc(-c2nc([C@H]3C[C@@H](O)CN3C(C)=O)n3c2cnc2[nH]ccc23)cc1C [F.1.22, 1-((2R,4R)-4-hydroxy-2-(3-(4-methoxy-3-methylphenyl)-6H-imidazo[1,5-a]pyrrolo[2,3-e]pyrazin-1-yl)pyrrolidin-1-yl)ethanone] | 10 to 30
CC(=O)N1C[C@H](O)C[C@@H]1c1nc(-c2ccc(OC(C)C)cc2)c2cnc3[nH]ccc3n12 [F.1.23, 1-((2R,4R)-4-hydroxy-2-(3-(4-isopropoxyphenyl)-6H-imidazo[1,5-a]pyrrolo[2,3-e]pyrazin-1-yl)pyrrolidin-1-yl)ethanone] | 10 to 30
CC(=O)N1C[C@H](O)C[C@@H]1c1nc(-c2ccc3c(c2)OCO3)c2cnc3[nH]ccc3n12 [F.1.24, 1-((2R,4R)-2-(3-(benzo[d][1,3]dioxol-5-yl)-6H-imidazo[1,5-a]pyrrolo[2,3-e]pyrazin-1-yl)-4-hydroxypyrrolidin-1-yl)ethanone] | > 100
COc1ccc(-c2nc([C@H]3C[C@@H](O)CN3C(C)=O)n3c2cnc2[nH]ccc23)cc1F [F.1.26, 1-((2R,4R)-2-(3-(3-fluoro-4-methoxyphenyl)-6H-imidazo[1,5-a]pyrrolo[2,3-e]pyrazin-1-yl)-4-hydroxypyrrolidin-1-yl)ethanone] | 30 to 100
CC(=O)N1C[C@H](O)C[C@@H]1c1nc(-c2ccc(C3(O)CCC3)cc2)c2cnc3[nH]ccc3n12 [F.1.27, 1-((2R,4R)-4-hydroxy-2-(3-(4-(1-hydroxycyclobutyl)phenyl)-6H-imidazo[1,5-a]pyrrolo[2,3-e]pyrazin-1-yl)pyrrolidin-1-yl)ethanone] | 10 to 30
CCOc1ccc(-c2nc([C@H]3C[C@@H](O)CN3C(C)=O)n3c2cnc2[nH]ccc23)cc1C [F.1.28, 1-((2R,4R)-2-(3-(4-ethoxy-3-methylphenyl)-6H-imidazo[1,5-a]pyrrolo[2,3-e]pyrazin-1-yl)-4-hydroxypyrrolidin-1-yl)ethanone] | < 10
CC(=O)N1C[C@H](O)C[C@@H]1c1nc(-c2ccc3c(c2)NCCO3)c2cnc3[nH]ccc3n12 [F.1.29, 1-((2R,4R)-2-(3-(3,4-dihydro-2H-benzo[b][1,4]oxazin-6-yl)-6H-imidazo[1,5-a]pyrrolo[2,3-e]pyrazin-1-yl)-4-hydroxypyrrolidin-1-yl)ethanone] | 10 to 30
CC(=O)N1C[C@H](O)C[C@@H]1c1nc(-c2ccc3c(c2)NCCC3)c2cnc3[nH]ccc3n12 [F.1.30, 1-((2R,4R)-4-hydroxy-2-(3-(1,2,3,4-tetrahydroquinolin-7-yl)-6H-imidazo[1,5-a]pyrrolo[2,3-e]pyrazin-1-yl)pyrrolidin-1-yl)ethanone] | 10 to 30
CC(=O)N1C[C@H](O)C[C@@H]1c1nc(-c2ccc(OC3CC3)cc2)c2cnc3[nH]ccc3n12 [F.1.31] | 10 to 30
(2R,4R)-2-(3-(chroman-6-yl)-6H-imidazo[1,5-a]pyrrolo[2,3-e]pyrazin-1-yl)-4-hydroxypyrrolidine-1-carboxamide [Example #6] | 10 to 30

More lines, now with the values ahead:

IC50 [nM] | Compound
< 10 | CC(=O)N1C[C@H](O)C[C@@H]1c1nc(-c2ccc(N3CCOC(C)C3)cc2)c2cnc3[nH]ccc3n12 (stereo partly drawn) [F.1.7, 1-((2R,4R)-4-hydroxy-2-(3-(4-(2-methylmorpholino)phenyl)-6H-imidazo[1,5-a]pyrrolo[2,3-e]pyrazin-1-yl)pyrrolidin-1-yl)ethanone]
< 10 | CC(=O)N1C[C@H](O)C[C@@H]1c1nc(-c2ccc(N3CCC(F)(F)CC3)cc2)c2cnc3[nH]ccc3n12 [F.1.8, 1-((2R,4R)-2-(3-(4-(4,4-difluoropiperidin-1-yl)phenyl)-6H-imidazo[1,5-a]pyrrolo[2,3-e]pyrazin-1-yl)-4-hydroxypyrrolidin-1-yl)ethanone]
< 10 | CC(=O)N1C[C@H](O)C[C@@H]1c1nc(-c2ccc(N3CC(F)(F)C3)cc2)c2cnc3[nH]ccc3n12 [F.1.9, 1-((2R,4R)-2-(3-(4-(3,3-difluoroazetidin-1-yl)phenyl)-6H-imidazo[1,5-a]pyrrolo[2,3-e]pyrazin-1-yl)-4-hydroxypyrrolidin-1-yl)ethanone]
< 10 | CC(=O)N1C[C@H](O)C[C@@H]1c1nc(-c2ccc(N3CCOCC3)cc2)c2cnc3[nH]cc(Cl)c3n12 [F.1.10, 1-((2R,4R)-2-(8-chloro-3-(4-morpholinophenyl)-6H-imidazo[1,5-a]pyrrolo[2,3-e]pyrazin-1-yl)-4-hydroxypyrrolidin-1-yl)ethanone]
< 10 | CC(=O)N1C[C@H](O)C[C@@H]1c1nc(-c2ccc(C(C)(C)O)cc2)c2cnc3[nH]ccc3n12 [F.1.15, 1-((2R,4R)-4-hydroxy-2-(3-(4-(2-hydroxypropan-2-yl)phenyl)-6H-imidazo[1,5-a]pyrrolo[2,3-e]pyrazin-1-yl)pyrrolidin-1-yl)ethanone]
< 10 | CC(=O)N1C[C@H](O)C[C@@H]1c1nc(-c2ccc(C(C)(C)C#N)cc2)c2cnc3[nH]ccc3n12 [F.1.16, 2-(4-(1-((2R,4R)-1-acetyl-4-hydroxypyrrolidin-2-yl)-6H-imidazo[1,5-a]pyrrolo[2,3-e]pyrazin-3-yl)phenyl)-2-methylpropanenitrile]
< 10 | CC(=O)N1C[C@H](O)C[C@@H]1c1nc(-c2ccc(N3CCOCC3)cc2)c2cnc3[nH]ccc3n12 [F.1.17, 1-((2R,4R)-4-hydroxy-2-(3-(4-morpholinophenyl)-6H-imidazo[1,5-a]pyrrolo[2,3-e]pyrazin-1-yl)pyrrolidin-1-yl)ethanone]
< 10 | CC(=O)N1C[C@H](O)C[C@@H]1c1nc(-c2ccc(C3CCOCC3)cc2)c2cnc3[nH]ccc3n12 [F.1.18, 1-((2R,4R)-4-hydroxy-2-(3-(4-(tetrahydro-2H-pyran-4-yl)phenyl)-6H-imidazo[1,5-a]pyrrolo[2,3-e]pyrazin-1-yl)pyrrolidin-1-yl)ethanone]
< 10 | COc1ccc(-c2nc([C@H]3C[C@@H](O)CN3C(C)=O)n3c2cnc2[nH]ccc23)cc1OC [F.1.20, 1-((2R,4R)-2-(3-(3,4-dimethoxyphenyl)-6H-imidazo[1,5-a]pyrrolo[2,3-e]pyrazin-1-yl)-4-hydroxypyrrolidin-1-yl)ethanone]
